Assay results: PMC5447088, “The Hybrid Strategy of Thermoactinospora rubra YIM 77501^T for Utilizing Cellulose as a Carbon Source at Different Temperatures” (Frontiers in Microbiology, 2017)

How the values were obtained:
Assay in all cases: p-nitrophenol release, absorbance at […] nm
Assay type in all cases: biochemical, Thermoactinospora rubra
TrBG3 = details: optimal temperature 50 °C; optimal pH; pNPGlu assumed as the substrate of Table S5
TrBG1 = details: optimal temperature 40 °C; optimal pH; pNPGlu assumed as the substrate of Table S5
TrBG2 = details: optimal temperature 60 °C; optimal pH; pNPGlu assumed as the substrate of Table S5
TrBG5 = details: optimal temperature 50-60 °C; optimal pH; pNPGlu assumed as the substrate of Table S5

- Km (TrBG3): 5.9 mM
- Km (TrBG1): 9.8 mM
- Km (TrBG2): 0.31 mM
- Km (TrBG5): 1.4 mM
Compound: O=[N+]([O-])c1ccc(O[C@@H]2O[C@H](CO)[C@@H](O)[C@H](O)[C@H]2O)cc1 [p-nitrophenyl-β-D-glucopyranoside]
